Paper PMC6614840 (2019)

Assays:
[1] = system: wild-type lysC aptamer (three-strand smFRET construct LMS/1-5V2/DNA-bi) (RNA, riboswitch, internal amino modifier (N) for Cy5 between 25 and 26 of strand 2; strand 3 is a DNA tether) GCGGUGAAGAUAGAGGUGCGAACUUCAAGAGUAUGCCUUUGGAGAAAGAUGGAUUCUGUGAAAAAGGCUGAAAGGGGAGCGUCGCCGAAGCAAAUAAAACCCCAUCGGUAUUAUUUGCUGGCCGUGCAUUGAAUAAAUGUAAGGCUGUCAAGAAGCAUCGUUCAAGCGUUUUUUAUGCUUGGAAGAUAAGAA/CCGAUGCUUCUUGGAGGGCUAUCUUCACC; assay: smFRET histograms; conditions: Na+ in place of K+; ligand-bound FRET state not formed efficiently
[2] = system: BPX variant (G39C) (RNA, riboswitch, internal amino modifier (N) for Cy5 between 25 and 26 of strand 2; strand 3 is a DNA tether) GCGGUGAAGAUAGACGUGCGAACUUCAAGAGUAUGCCUUUGGAGAAAGAUGGAUUCUGUGAAAAAGGCUGAAAGGGGAGCGUCGCCGAAGCAAAUAAAACCCCAUCGGUAUUAUUUGCUGGCCGUGCAUUGAAUAAAUGUAAGGCUGUCAAGAAGCAUCGUUCAAGCGUUUUUUAUGCUUGGAAGAUAAGAA/CCGAUGCUUCUUGGAGGGCUAUCUUCACC; assay: smFRET histograms; conditions: ligand-bound FRET state not formed even at high Mg2+ or lysine
[3] = system: L2X variant (G72C-G76C) (RNA, riboswitch, internal amino modifier (N) for Cy5 between 25 and 26 of strand 2; strand 3 is a DNA tether) GCGGUGAAGAUAGAGGUGCGAACUUCAAGAGUAUGCCUUUGGAGAAACUACCAUUCUGUGAAAAAGGCUGAAAGGGGAGCGUCGCCGAAGCAAAUAAAACCCCAUCGGUAUUAUUUGCUGGCCGUGCAUUGAAUAAAUGUAAGGCUGUCAAGAAGCAUCGUUCAAGCGUUUUUUAUGCUUGGAAGAUAAGAA/CCGAUGCUUCUUGGAGGGCUAUCUUCACC; assay: smFRET histograms; conditions: ligand-bound FRET state not formed even at high Mg2+ or lysine
[4] = system: L4X variant (A156/157C) (RNA, riboswitch, internal amino modifier (N) for Cy5 between 25 and 26 of strand 2; strand 3 is a DNA tether) GCGGUGAAGAUAGAGGUGCGAACUUCAAGAGUAUGCCUUUGGAGAAAGAUGGAUUCUGUGAAAAAGGCUGAAAGGGGAGCGUCGCCGAAGCAAAUAAAACCCCAUCGGUAUUAUUUGCUGGCCGUGCAUUGCCUAAAUGUAAGGCUGUCAAGAAGCAUCGUUCAAGCGUUUUUUAUGCUUGGAAGAUAAGAA/CCGAUGCUUCUUGGAGGGCUAUCUUCACC; assay: smFRET histograms; conditions: ligand-bound FRET state not formed even at high Mg2+ or lysine
[5] = system: wild-type lysC aptamer (three-strand smFRET construct LMS/1-5V2/DNA-bi) (RNA, riboswitch, internal amino modifier (N) for Cy5 between 25 and 26 of strand 2; strand 3 is a DNA tether) GCGGUGAAGAUAGAGGUGCGAACUUCAAGAGUAUGCCUUUGGAGAAAGAUGGAUUCUGUGAAAAAGGCUGAAAGGGGAGCGUCGCCGAAGCAAAUAAAACCCCAUCGGUAUUAUUUGCUGGCCGUGCAUUGAAUAAAUGUAAGGCUGUCAAGAAGCAUCGUUCAAGCGUUUUUUAUGCUUGGAAGAUAAGAA/CCGAUGCUUCUUGGAGGGCUAUCUUCACC; assay: smFRET kinetics, KD,fold x KD,bind; conditions: 100 mM K+, 2 mM Mg2+; 50 mM Tris pH 7.8; apparent
[6] = system: wild-type lysC aptamer (three-strand smFRET construct LMS/1-5V2/DNA-bi) (RNA, riboswitch, internal amino modifier (N) for Cy5 between 25 and 26 of strand 2; strand 3 is a DNA tether) GCGGUGAAGAUAGAGGUGCGAACUUCAAGAGUAUGCCUUUGGAGAAAGAUGGAUUCUGUGAAAAAGGCUGAAAGGGGAGCGUCGCCGAAGCAAAUAAAACCCCAUCGGUAUUAUUUGCUGGCCGUGCAUUGAAUAAAUGUAAGGCUGUCAAGAAGCAUCGUUCAAGCGUUUUUUAUGCUUGGAAGAUAAGAA/CCGAUGCUUCUUGGAGGGCUAUCUUCACC; assay: smFRET histograms, global Hill fit of state occupancies; conditions: 50 mM Tris pH 7.8

For `NCCCC[C@H](N)C(=O)O`, the binding [1] was “weak”, the binding [2] was “no” and the binding [3] was “no”. For the same compound, the binding [4] was “no”, the “KD, app” value [5] was 11 ± 7 µM and the KD ([6]; 100 mM K+, 2 mM Mg2+, Figure 4 legend prints 4.5 ± 1 μM) was 3 ± 1 µM. The KD ([6]; no K+, 10 mM Mg2+, Hill coefficient 1.1 ± 0.2) was 850 ± 35 µM.
